“Also recorded” adds a separate entry of the source.

What is called solubility is how much of the substance goes into solution per volume. In general, solubility (thermodynamic) refers to solubility found after equilibrating the solid with the medium.

A short description of series [1]: Plasma and ocular tissue distribution after single ocular administration in Dutch Belted rabbits (Example 6). It counts as in vivo. The settings on record: single eye drop 1 mg/mL (0.05 mg/eye, 50 µL/eye), 0.5, 4 or 8 hours. The text has this: Detection of Plasma and Ocular Tissue Distribution of Compounds after Single Ocular Administration in Dutch Belted Rabbits
Age-related macular degeneration and diabetic retinopathy are associated with neovascularization in the posterior segment of the eye. A major problem with topical eye drops for treating posterior segment disorders is the inefficient delivery of the agent to the posterior segment sites due to the corneal and conjunctival barriers. Therefore, it is important to measure the distribution of compounds from ocular formulations in several major ocular tissues. […] This experiment used Dutch Belted rabbits. […]
Male Dutch Belted rabbits used in this experiment were purchased from Pizhou Dongfang Breeding Co., Ltd., with animal weights ranging from 1.5 to 2.5 kg. […] All prepared dosing formulations were freshly prepared on the day of administration, sampled, and the actual concentration of the dosing formulation was determined.
On the day of the experiment, animals were administered 1 mg/mL (0.05 mg/eye, 50 µL/eye). […] The concentrations of each analyte in rabbit ocular tissues and plasma obtained in this experiment were determined using an LC-MS/MS analytical method. […] BLOQ (Below the Limit of Quantification) is the lowest analyte concentration that can be quantified with acceptable precision and accuracy. […]

The conditions of series [2]: background statement on the known drug; cited from earlier work.
Series [3] is described as follows: Thermodynamic solubility test. It counts as physicochemical. To be noted: buffer solution, aqueous buffer, thermodynamic from solid; positive compound. The method in brief:
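Samples sonicated 10 min, shaken 8 h at room temperature, re-sonicated and centrifuged at 13000 rpm for 15 min. Supernatant recentrifuged and analysed by LC-MS, with concentrations quantified against a 3–5 point calibration curve.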

For `CNC(=O)c1ccccc1Sc1ccc2c(/C=C/c3ccccn3)n[nH]c2c1` [Axitinib], the “drug concentration in retina” value in series [1] is recorded as “below the lower limit of quantification; also recorded: below BLOQ”. The solubility in series [2] is on record as less than 2 µg/mL. This molecule also came in with a thermodynamic solubility at 8 h in series [3] of less than 2 µg/mL.
